Data: the NIST ThermoML archive (doi:10.1021/je060271a)

Conditions: 323.14 K, Liquid, Vibrating tube method

CCCCCC(=O)OCC(COC(=O)CCCCC)(COC(=O)CCCCC)COC(=O)CCCCC [pentaerythritol tetrahexanoate]
Conditions | mass density [kg/m3]
4906.2 kPa | 976
4926.8 kPa | 976.1
4951.5 kPa | 976.2
4972.1 kPa | 976.2
4997.4 kPa | 976.1
5018.6 kPa | 976.1
5041 kPa | 976.1
5066.8 kPa | 976.1
5088.6 kPa | 976.2
5114.4 kPa | 976.3
5140.5 kPa | 976.2
5162.3 kPa | 976.3
5184.8 kPa | 976.5
5212 kPa | 976.3
5233.9 kPa | 976.3
5261.4 kPa | 976.3
5289.1 kPa | 976.3
5313.2 kPa | 976.3
5337.7 kPa | 976.4
5363.2 kPa | 976.4
5392.1 kPa | 976.2
5421.2 kPa | 976.4
5445 kPa | 976.5
5469.8 kPa | 976.5
5499.7 kPa | 976.6
5530.1 kPa | 976.4
5555.5 kPa | 976.6
5581.3 kPa | 976.6
5611.7 kPa | 976.5
5635.4 kPa | 976.5
5659 kPa | 976.7
5678.8 kPa | 976.7
5695.8 kPa | 976.6
5715.8 kPa | 976.7
5733 kPa | 976.7
5749.7 kPa | 976.7
5769.6 kPa | 976.7
5786.4 kPa | 976.7
5806.6 kPa | 976.8
5823.9 kPa | 976.7
5844.1 kPa | 976.7
5861.2 kPa | 976.8
5882.2 kPa | 976.8
5899.3 kPa | 976.7
5920.4 kPa | 976.7
5941.5 kPa | 976.8
5959.1 kPa | 976.8
5976.7 kPa | 976.8
5997.6 kPa | 976.8
6015.1 kPa | 976.8
6036.5 kPa | 977
6054.3 kPa | 977
6075.8 kPa | 976.9
6094.3 kPa | 976.9
6115.5 kPa | 976.8
6134 kPa | 976.9
6155.6 kPa | 976.8
6178.1 kPa | 977.1
6196.6 kPa | 977
6361.8 kPa | 977.1
6380.8 kPa | 977.1
6403.6 kPa | 977.1
6426.8 kPa | 977.2
6446.5 kPa | 977.1
6465.6 kPa | 977.2
6489.3 kPa | 977.1
6576.9 kPa | 977.3
6597.3 kPa | 977.2
6621.1 kPa | 977.3
6641.5 kPa | 977.4
6666.6 kPa | 977.2
6690.9 kPa | 977.4
6711.7 kPa | 977.4
6732.6 kPa | 977.4
6757.6 kPa | 977.4
6778.7 kPa | 977.3
6803.9 kPa | 977.3
6825.5 kPa | 977.5
6851.4 kPa | 977.5
6873.7 kPa | 977.5
6899.4 kPa | 977.5
6921.3 kPa | 977.5
6947.4 kPa | 977.5
6973.7 kPa | 977.5
6995.9 kPa | 977.5
7019.4 kPa | 977.6
7043.5 kPa | 977.5
7070.3 kPa | 977.6
7093.1 kPa | 977.7
7120.7 kPa | 977.6
7143.5 kPa | 977.6
7170.6 kPa | 977.7
7194.3 kPa | 977.8
7222.1 kPa | 977.7
7250.4 kPa | 977.7
7273.9 kPa | 977.8
7297.5 kPa | 977.6
7326.7 kPa | 977.8
7351.7 kPa | 977.8
7381.1 kPa | 977.8
7460.9 kPa | 977.8
7573.4 kPa | 977.9
7631.6 kPa | 977.9
7784.6 kPa | 978.1
7812.4 kPa | 978
7839.9 kPa | 978.1
7863.3 kPa | 978.1
8237.7 kPa | 978.4
8267.6 kPa | 978.3
8292.8 kPa | 978.4
8323.1 kPa | 978.5
8348.5 kPa | 978.4
8379 kPa | 978.5
8410 kPa | 978.4
8436.3 kPa | 978.5
8466.9 kPa | 978.5
8498.7 kPa | 978.5
8525.2 kPa | 978.6
8557.3 kPa | 978.5
8584.2 kPa | 978.6
8617 kPa | 978.7
8645.1 kPa | 978.7
8678.7 kPa | 978.7
8712.2 kPa | 978.7
8740.6 kPa | 978.8
8775.3 kPa | 978.7
8805.1 kPa | 978.8
8840.3 kPa | 978.8
8877 kPa | 978.8
8907.8 kPa | 978.7
8944 kPa | 978.8
8971.8 kPa | 978.9
8997.6 kPa | 978.9
9020.2 kPa | 978.9
9142.1 kPa | 979
9164.7 kPa | 979.1
9183.3 kPa | 978.9
9204.3 kPa | 978.9
9226.4 kPa | 978.9
9720.5 kPa | 979.3
9812.4 kPa | 979.5
9820.8 kPa | 979.4
9834.6 kPa | 979.4
9846 kPa | 979.4
9859.9 kPa | 979.4
